The record followed here is patent US8309685B2 (Celgene Avilomics Research, Inc., priority 2007, dated 2012).

Like-named read-outs stand apart in the source and are kept apart here.

The target of series [1] is T1, D168A mutant of the HCV NS3/4A 1b protease enzyme (Hepatitis C virus genotype 1b, UniProt P26663, D1194A).
T1 construct: 10× stocks of NS3/4A protease enzyme from Bioenza (Mountain View, Calif.); purchased Bioenza (Mountain View, Calif.)
Description: HCV Protease FRET Assay (IC50), D168A mutant. In kind it is biochemical.

Series [2] has as its target T2, wild type HCV NS3/4A 1b protease enzyme (Hepatitis C virus genotype 1b, UniProt P26663).
T2 construct: 10× stocks of NS3/4A protease enzyme from Bioenza (Mountain View, Calif.); purchased Bioenza (Mountain View, Calif.)
Description: HCV Protease FRET Assay (IC50_APP), wild type. Format: biochemical. Particulars: read-out: IC50_APP, WT; apparent IC50, wild type NS3/4A 1b.

The target in series [3] is T2, wild type HCV NS3/4A 1b protease enzyme. The series can be described thus: biochemical. In kind it is biochemical.
Series [4] addresses T3, A156T mutant of the HCV NS3/4A 1b protease enzyme (Hepatitis C virus genotype 1b, UniProt P26663, A1182T).
T3 construct: 10× stocks of NS3/4A protease enzyme from Bioenza (Mountain View, Calif.); purchased Bioenza (Mountain View, Calif.)
Description: HCV Protease FRET Assay (IC50), A156T mutant. In kind it is biochemical. As for the experimental part: HCV Protease FRET Assay for Wild Type and Mutated NS3/4A 1b Enzymes (IC50)
The protocol is a modified FRET-based assay (v—02) from In Vitro Resistance Studies of HCV Serine Protease Inhibitors, 2004, JBC, vol. 279, No. 17, pp 17508-17514.
10× stocks of NS3/4A protease enzyme from Bioenza (Mountain View, Calif.) and 1.13× 5-FAM/QXL™ 520 FRET peptide substrate from Anaspec (San Jose, Calif.) were prepared in 50 mM HEPES, pH 7.8, 100 mM NaCl, 5 mM DTT and 20% glycerol. 5 μL of each enzyme were pre-incubated in a Corning (#3573) 384-well, black, non-treated microtiter plate (Corning, N.Y.) for 30 min at 25° C. with a 0.5 μL volume of 50% DMSO and serially diluted compounds prepared in 50% DMSO. Protease reactions were started with the addition of 45 μL of the FRET substrate and monitored for 120 minutes at λex487/λem514 through Quad^4 monochromoters in a Synergy^4 plate reader from BioTek (Winooski, Vt.). At the conclusion of each assay, progress curves from each well were examined for linear reaction kinetics and fit statistics (R^2, absolute sum of squares). Initial velocity (0 minutes to 30+ minutes) from each reaction was determined from the slope of a plot of relative fluorescence units vs time (minutes) and then plotted against inhibitor concentration to estimate IC50 from log[Inhibitor] vs Response, Variable Slope model in GraphPad Prism from GraphPad Software (San Diego, Calif.).
The compound numbers correspond to the compound numbers in Table 3. […] ;

For series [5], the target named is T1, D168A mutant of the HCV NS3/4A 1b protease enzyme. The series can be described thus: HCV Protease FRET Assay (IC50_APP), D168A mutant. In kind it is biochemical.
The target of series [6] is T3, A156T mutant of the HCV NS3/4A 1b protease enzyme. Description: HCV Protease FRET Assay (IC50_APP), A156T mutant. Format: biochemical.
Series [7] relates to cell line ET (luc-ubi-neo/ET), human Huh7 hepatoma cell line. The series can be described thus: Method A: cytotoxicity in ET replicon cells (CytoTox-1). In kind it is cell-based. Particulars: concentration decreasing cell viability by 50%, 72 hr. As for the experimental part:
The compounds were assayed to evaluate the antiviral activity and cytotoxicity of compounds in vitro using HCV RNA replicons. This assay used the cell line ET (luc-ubi-neo/ET), which is a human Huh7 hepatoma cell line that contains an HCV RNA replicon with a stable luciferase (Luc) reporter and three cell culture-adaptive mutations. […]
The ET cell line was grown in Dulbecco's modified essential media (DMEM), 10% fetal bovine serum (FBS), 1% penicillin-streptomycin (pen-strep), 1% glutamine, 250 μg/ml G418 in a 5% CO2 incubator at 37° C. All cell culture reagents were obtained from Mediatech (Manassas, Va.). Cells were trypsinized (1% trypsin:EDTA) and plated out at 5×10^3 cells/well in white 96-well assay plates (Costar) dedicated to cell number (cytotoxicity) or antiviral activity assessments. Drugs were added at six 3-fold concentrations each and the assay was run in DMEM, 5% FBS, 1% pen-strep, 1% glutamine. Human interferon alpha-2b (PBL Biolabs, New Brunswick, N.J.) was included in each run as a positive control compound. Cells were processed 72 hr post drug addition when the cells are still subconfluent. Antiviral activity was measured by analyzing replicon-derived luciferase activity using the Steady-Glo Luciferase Assay System (Promega, Madison, Wis.) according to manufacturer's instruction. The number of cells in each well was determined by CytoTox-1 reagent (Promega). […].
Background: Replicon systems follow genome replication, usually without infectious particles.

Series [8] has as its system HCV RNA replicon in cell line ET (luc-ubi-neo/ET), human Huh7 hepatoma. Description: Method A: HCV RNA replicon antiviral assay (luciferase, ET cell line). Format: cell-based, Hepatitis C virus. The procedure, abridged: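 ET replicon cells (Huh7 carrying luciferase-reporter HCV replicon) plated at 5×10^3 cells/well and exposed 72 hr to six 3-fold drug concentrations in DMEM/5% FBS. Replicon luciferase gave EC50/EC90; CytoTox-1 cell counts gave IC50 (viability); […]. Interferon alpha-2b served as positive control.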

Setting [9] is: read-out: Inhibition, HCV D168A; D168A enzyme, FRET assay.
Where [10] appears, read: read-out: Inhibition, WT; WT enzyme, FRET assay.
Where [11] appears, read: read-out: Inhibition, HCV A156T; A156T enzyme, FRET assay.
The mark [12] stands for this setting: read-out: IC50_APP, HCV D168A; apparent IC50, D168A mutant.
The mark [13] stands for this setting: read-out: IC50_APP, HCV A156T; apparent IC50, A156T mutant.
The mark [14] stands for this setting: Hepatitis C virus, Huh-7, assay described in Example 22.
Where [15] appears, read: Hepatitis C virus, Huh-7, Replicon, assay of Example 22, 72 hr, read-out: Inhibition, Replicon.
Setting [16] is: Hepatitis C virus, Huh-7, assay described in Example 22, read-out: Replicon (IC50).

The IC90 is the concentration at which the effect reaches the 90% level. Consider `C=C[C@@H]1C[C@]1(NC(=O)[C@@H]1C[C@@H](Oc2cc(-c3ccccc3)nc3cc(OC)ccc23)CN1C(=O)[C@H](CCNC(=O)CCl)NC(=O)OC(C)(C)C)C(=O)NS(=O)(=O)c1ccccc1` [Compound I-4, (2S)-2-[[(1,1-dimethylethoxy)carbonyl]amino]-4-(chloroacetyl)amino-butanoyl-(4R)-4-[(7-methoxy-2-phenyl-4-quinolinyl)oxy]-L-prolyl-1-amino-2-ethenyl-N-(phenylsulfonyl)-(1R,2S)-cyclopropanecarboxamide], for which the IC50 in series [1] (setting [9]) was 10 to 100 nM; in series [2] it was less than 10 nM; in series [3] (setting [10]), less than 10 nM; in series [4] (setting [11]), 10 to 100 nM; in series [5] (setting [12]), 100 to 1000 nM; in series [6] (setting [13]) it was 100 to 1000 nM. For the same compound, the IC50 in series [8] (setting [15]) and in series [8] (setting [16]) was 10 to 100 nM in each case. Moreover, the “Inhibition, Cytotoxicity” value in series [7] is “D (IC50>1000 nM and <10,000 nM)”. Besides, in series [8] (setting [14]), the 90% effect concentration (IC90) lay within 100 to 1000 nM.

For `C=C[C@@H]1C[C@]1(NC(=O)[C@@H]1C[C@@H](Oc2cc(-c3ccccc3)nc3cc(OC)ccc23)CN1C(=O)[C@H](CCN(C)C(=O)CCl)NC(=O)OC(C)(C)C)C(=O)NS(=O)(=O)c1ccccc1` [Compound I-9, (2S)-2-[[(1,1-dimethylethoxy)carbonyl]amino]-4-(chloroacetyl)methylamino-butanoyl-(4R)-4-[(7-methoxy-2-phenyl-4-quinolinyl)oxy]-L-prolyl-1-amino-2-ethenyl-N-(phenylsulfonyl)-(1R,2S)-cyclopropanecarboxamide], the IC50 in series [1] (setting [9]) was less than 10 nM; in series [2] it was less than 10 nM; in series [3] (setting [10]), less than 10 nM; in series [4] (setting [11]), less than 10 nM; in series [5] (setting [12]), 100 to 1000 nM; in series [6] (setting [13]), 10 to 100 nM. The IC50 in series [8] (setting [15]) and in series [8] (setting [16]) was 10 to 100 nM in each case. The “Inhibition, Cytotoxicity” value in series [7] is “C (IC50>100 nM and ≦1000 nM)”. The same compound came in with a 90% effect concentration (IC90) in series [8] (setting [14]) greater than 10000 nM.

Consider `C=CC(=O)N(C)CC[C@H](NC(=O)OC(C)(C)C)C(=O)N1C[C@H](Oc2cc(-c3ccccc3)nc3cc(OC)ccc23)C[C@H]1C(=O)N[C@]1(C(=O)NS(=O)(=O)c2ccccc2)C[C@H]1C=C` [Compound I-12, (2S)-2-[[(1,1-dimethylethoxy)carbonyl]amino]-4-(2-propenoyl)methylamino-butanoyl-(4R)-4-[(7-methoxy-2-phenyl-4-quinolinyl)oxy]-L-prolyl-1-amino-2-ethenyl-N-(phenylsulfonyl)-(1R,2S)-cyclopropanecarboxamide], for which the IC50 in series [1] (setting [9]) is 10 to 100 nM; in series [2], less than 10 nM; in series [3] (setting [10]) it was less than 10 nM; in series [4] (setting [11]), 10 to 100 nM; in series [5] (apparent IC50, D168A mutant; read-out: IC50_APP, HCV D168A), 1000 to 10000 nM; in series [6] (apparent IC50, A156T mutant; read-out: IC50_APP, HCV A156T), 1000 to 10000 nM. Further, the IC50 in series [8] (setting [15]) and in series [8] (setting [16]) was 10 to 100 nM throughout. Also, in series [7], the “Inhibition, Cytotoxicity” value is “D (IC50>1000 nM and <10,000 nM)”. In addition, in series [8] (setting [14]), the 90% effect concentration (IC90) was in the range of 100 to 1000 nM.

On to `C=C[C@@H]1C[C@]1(NC(=O)[C@@H]1C[C@@H](Oc2cc(-c3ccccc3)nc3cc(OC)ccc23)CN1C(=O)[C@H](CCNC(=O)C(C)Br)NC(=O)OC(C)(C)C)C(=O)NS(=O)(=O)c1ccccc1` (some centres unmarked) [Compound I-20], for which the IC50 in series [1] (setting [9]) is 100 to 1000 nM; in series [3] (setting [10]), less than 10 nM; in series [4] (setting [11]), 100 to 1000 nM; in series [8] (setting [15]), 100 to 1000 nM. Besides, the “Inhibition, Cytotoxicity” value in series [7] was “D (IC50>1000 nM and <10,000 nM)”.

For the compound `C=C[C@@H]1C[C@]1(NC(=O)[C@@H]1C[C@@H](Oc2cc(-c3ccccc3)nc3cc(OC)ccc23)CN1C(=O)[C@H](CNC(=O)C(Cl)c1ccccc1)NC(=O)OC(C)(C)C)C(=O)NS(=O)(=O)c1ccccc1` (stereo partly drawn) [Compound I-23, tert-butyl(S)-3-(2-chloro-2-phenylacetamido)-1-((2S,4R)-4-(7-methoxy-2-phenylquinolin-4-yloxy)-2-((1R,2S)-1-(phenylsulfonylcarbamoyl)-2-vinylcyclopropylcarbamoyl)pyrrolidin-1-yl)-1-oxopropan-2-ylcarbamate], the IC50 in series [1] (setting [9]) is 100 to 1000 nM; in series [3] (setting [10]) it was less than 10 nM; in series [4] (setting [11]) it was 1000 to 10000 nM; in series [8] (setting [15]) it was 100 to 1000 nM. For the same compound, the “Inhibition, Cytotoxicity” value in series [7] was “D (IC50>1000 nM and <10,000 nM)”.

For `C=C[C@@H]1C[C@]1(NC(=O)[C@@H]1C[C@@H](Oc2cc(-c3ccccc3)nc3cc(OC)ccc23)CN1C(=O)[C@H](CN(C)C(=O)CCl)NC(=O)OC(C)(C)C)C(=O)NS(=O)(=O)c1ccccc1` [Compound I-29, tert-butyl-(S)-3-(2-chloro-N-methylacetamido)-1-((2S,4R)-4-(7-methoxy-2-phenylquinolin-4-yloxy)-2-((1R,2S)-1-(phenylsulfonylcarbamoyl)-2-vinylcyclopropylcarbamoyl)pyrrolidin-1-yl)-1-oxopropan-2-ylcarbamate], the IC50 in series [1] (setting [9]) is less than 10 nM; in series [3] (setting [10]), less than 10 nM; in series [4] (setting [11]) it was less than 10 nM; in series [8] (setting [15]), 10 to 100 nM. In addition, the “Inhibition, Cytotoxicity” value in series [7] was “C (IC50>100 nM and ≦1000 nM)”.

Take `C=C[C@@H]1C[C@]1(NC(=O)[C@@H]1C[C@@H](Oc2cc(-c3ccccc3)nc3cc(OC)ccc23)CN1C(=O)[C@H](CNC(=O)CC)NC(=O)OC(C)(C)C)C(=O)NS(=O)(=O)c1ccccc1` [I^R-3, N-[(1,1-dimethylethoxy)carbonyl]-3-[(propionyl)amino]-L-alanyl-(4R)-4-[(7-methoxy-2-phenyl-4-quinolinyl)oxy]-L-prolyl-1-amino-2-ethenyl-N-(phenylsulfonyl)-(1R,2S)-cyclopropanecarboxamide]: the IC50 is 100 to 1000 nM in series [1] (D168A enzyme, FRET assay; read-out: Inhibition, HCV D168A); less than 10 nM in series [3] (WT enzyme, FRET assay; read-out: Inhibition, WT); 10 to 100 nM in series [4] (A156T enzyme, FRET assay; read-out: Inhibition, HCV A156T); 1000 to 10000 nM in series [8] (Replicon, assay of Example 22, 72 hr, read-out: Inhibition, Replicon). In series [7], the “Inhibition, Cytotoxicity” value is listed as “E (IC50≧10,000 nM)”.
